{"source": "PubChem BioAssay (NCI)", "note": "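96-well plates; 48 h exposure; 5 concentrations. Endpoints by linear interpolation between flanking doses. Not reached: highest tested concentration assigned. The concentration for full growth arrest is given as TGI.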"}
{"test_system": "KM12 colon", "assay": "NCI tumour cell line growth inhibition, 48 h", "units": {"TGI": "µM"}}
{"smiles": "CCCCS(=O)(=O)CCC(N)P(=O)(O)O", "note": "(stereo not drawn)", "TGI": "> 100"}
{"smiles": "O=[N+]([O-])c1cccc2nc3ccccc3c(NCCCCNc3c4ccccc4nc4cccc([N+](=O)[O-])c34)c12", "TGI": 0.204}
{"smiles": "C/C=C/C(C#N)(/C=C/c1ccccc1)OP1(=O)OC(c2ccccc2)C(C)N1C", "note": "(stereo not drawn)", "TGI": 36.7}
{"smiles": "CN(C)CCCN1c2ccc([N+](=O)[O-])cc2CCc2cccc([N+](=O)[O-])c21", "TGI": 28.9}
{"smiles": "C=C(C)[C@@H]1CCC2=C[C@@H](OC2=O)[C@@H](C(=C)C)C2=CC(C(=O)O)=C(C1)O2", "TGI": "> 100"}
{"smiles": "S=C(N1CCN(c2ccc(Cl)c(Cl)c2)CC1)N1CCN(c2ccc(Cl)c(Cl)c2)CC1", "TGI": 27.1}
{"smiles": "Cc1ccc(S(=O)(=O)NC(=O)NC(CC(N)=O)C(=O)O)cc1", "note": "(stereo not drawn)", "TGI": "> 100"}
{"smiles": "CSCCCN(CCCSC)CCCSC", "TGI": "> 100"}
{"smiles": "COc1cc(-c2ccc(Br)[nH]2)[nH]c1C=NCC(C)C", "TGI": 3.94}
{"smiles": "Cc1ccc(-c2n[nH]c(Cc3nc(-c4ccc(C)cc4)n[nH]3)n2)cc1", "TGI": "> 100"}
{"smiles": "c1ccc(C(C2=Nc3cccc4cccc(c34)N2)c2ccccc2)cc1", "TGI": 49.6}
{"smiles": "Cc1nnc2n1N=C(c1ccccc1)/C(=C/c1ccc(-c3ccc(Cl)cc3)o1)S2", "TGI": 32.4}
{"smiles": "CN(CC(=O)N1CC(CCl)c2ccc([N+](=O)[O-])cc21)CC(=O)N1CC(CCl)c2ccc([N+](=O)[O-])cc21", "note": "(stereo not drawn)", "TGI": "> 100"}
{"smiles": "COC(=O)NC(Nc1ccccn1)(C(F)(F)F)C(F)(F)F", "TGI": "> 100"}
{"smiles": "CC(=O)Nc1oc(C)c(C)c1S(=O)(=O)c1ccc(Cl)cc1", "TGI": "> 100"}
{"smiles": "COC1(c2ccc(Cl)cc2)SC=C(C)n2c1noc2=O", "note": "(stereo not drawn)", "TGI": "> 100"}
{"smiles": "NC1CC(=O)c2cscc21", "note": "(stereo not drawn)", "TGI": 43.1}
{"smiles": "CC1=CC(=O)[C@@H](O)[C@]2(C)[C@H]3[C@@]4(O)OC[C@]35[C@H]([C@@H](C)[C@H]4O)[C@@H](OC(=O)C(C)(C)CO)C(=O)O[C@@H]5C[C@@H]12", "TGI": 0.787}
{"test_system": "MDA-MB-231 breast", "assay": "NCI tumour cell line growth inhibition, 48 h", "units": {"TGI": "µM"}}
{"smiles": "CCCN(CCC)CCc1ccc(OC2=CCN(C)CC2)cc1", "TGI": "> 100"}
{"smiles": "O=C1OCN(c2ccccc2)C12CCN(Cc1ccccc1)CC2", "TGI": 66.6}
{"smiles": "Cc1ccc2c(c1)[nH]c(=S)n2C=C(C(N)=O)C(N)=O", "TGI": "> 100"}
{"smiles": "Cn1c(=O)c2c3ccccc3n(C)c2n(C)c1=O", "TGI": "> 100"}
{"smiles": "CN(C)CCNc1ccc([N+](=O)[O-])c2sc3ccccc3c(=O)c12", "TGI": 9.39}
{"smiles": "COc1cc(NC(C)c2ccc3c(c2)OCCO3)cc(OC)c1OC", "note": "(stereo not drawn)", "TGI": "> 100"}
{"smiles": "CN1Cc2ccccc2S(=O)(=O)n2cccc2C1=O", "TGI": "> 100"}
{"smiles": "Cc1cccc2oc3c(CC(=O)O)cccc3c(=O)c12", "TGI": "> 100"}
{"smiles": "S=c1nc2sc3c(c2c(Nc2ccc(Cl)cc2)[nH]1)CCCC3", "TGI": "> 100"}
{"smiles": "C/C=C/C(C#N)(/C=C/c1ccccc1)OP1(=O)OC(c2ccccc2)C(C)N1C", "note": "(stereo not drawn)", "TGI": 34.9}
{"smiles": "CN(C)CCCN1c2ccc([N+](=O)[O-])cc2CCc2cccc([N+](=O)[O-])c21", "TGI": 26.1}
{"smiles": "C=C(C)[C@@H]1CCC2=C[C@@H](OC2=O)[C@@H](C(=C)C)C2=CC(C(=O)O)=C(C1)O2", "TGI": "> 100"}
{"smiles": "S=C(N1CCN(c2ccc(Cl)c(Cl)c2)CC1)N1CCN(c2ccc(Cl)c(Cl)c2)CC1", "TGI": 21.2}
{"smiles": "Cc1ccc(S(=O)(=O)NC(=O)NC(CC(N)=O)C(=O)O)cc1", "note": "(stereo not drawn)", "TGI": "> 100"}
{"smiles": "CSCCCN(CCCSC)CCCSC", "TGI": "> 100"}
{"smiles": "COc1cc(-c2ccc(Br)[nH]2)[nH]c1C=NCC(C)C", "TGI": 6.64}
{"smiles": "Cc1ccc(-c2n[nH]c(Cc3nc(-c4ccc(C)cc4)n[nH]3)n2)cc1", "TGI": "> 100"}
{"smiles": "c1ccc(C(C2=Nc3cccc4cccc(c34)N2)c2ccccc2)cc1", "TGI": "> 100"}
{"smiles": "Cc1nnc2n1N=C(c1ccccc1)/C(=C/c1ccc(-c3ccc(Cl)cc3)o1)S2", "TGI": 33}
{"smiles": "CN(CC(=O)N1CC(CCl)c2ccc([N+](=O)[O-])cc21)CC(=O)N1CC(CCl)c2ccc([N+](=O)[O-])cc21", "note": "(stereo not drawn)", "TGI": "> 100"}
{"smiles": "COC(=O)NC(Nc1ccccn1)(C(F)(F)F)C(F)(F)F", "TGI": "> 100"}
{"smiles": "NC1CC(=O)c2cscc21", "note": "(stereo not drawn)", "TGI": "> 100"}
{"test_system": "NCI/ADR-RES ovarian", "assay": "NCI tumour cell line growth inhibition, 48 h", "units": {"TGI": "µM"}}
{"smiles": "CCCN(CCC)CCc1ccc(OC2=CCN(C)CC2)cc1", "TGI": "> 100"}
{"smiles": "O=C1OCN(c2ccccc2)C12CCN(Cc1ccccc1)CC2", "TGI": "> 100"}
{"smiles": "Cc1ccc2c(c1)[nH]c(=S)n2C=C(C(N)=O)C(N)=O", "TGI": "> 100"}
{"smiles": "Cn1c(=O)c2c3ccccc3n(C)c2n(C)c1=O", "TGI": "> 100"}
{"smiles": "CN(C)CCNc1ccc([N+](=O)[O-])c2sc3ccccc3c(=O)c12", "TGI": 54.2}
{"smiles": "COc1cc(NC(C)c2ccc3c(c2)OCCO3)cc(OC)c1OC", "note": "(stereo not drawn)", "TGI": 91.4}
{"smiles": "Cc1cccc2oc3c(CC(=O)O)cccc3c(=O)c12", "TGI": "> 100"}
{"smiles": "CCCCS(=O)(=O)CCC(N)P(=O)(O)O", "note": "(stereo not drawn)", "TGI": "> 100"}
{"smiles": "O=[N+]([O-])c1cccc2nc3ccccc3c(NCCCCNc3c4ccccc4nc4cccc([N+](=O)[O-])c34)c12", "TGI": 2.71}
{"smiles": "CN(C)CCCN1c2ccc([N+](=O)[O-])cc2CCc2cccc([N+](=O)[O-])c21", "TGI": 30.4}
{"smiles": "C=C(C)[C@@H]1CCC2=C[C@@H](OC2=O)[C@@H](C(=C)C)C2=CC(C(=O)O)=C(C1)O2", "TGI": "> 100"}
{"smiles": "S=C(N1CCN(c2ccc(Cl)c(Cl)c2)CC1)N1CCN(c2ccc(Cl)c(Cl)c2)CC1", "TGI": 30.3}
{"smiles": "Cc1ccc(S(=O)(=O)NC(=O)NC(CC(N)=O)C(=O)O)cc1", "note": "(stereo not drawn)", "TGI": "> 100"}
{"smiles": "CSCCCN(CCCSC)CCCSC", "TGI": "> 100"}
{"smiles": "Cc1ccc(-c2n[nH]c(Cc3nc(-c4ccc(C)cc4)n[nH]3)n2)cc1", "TGI": "> 100"}
{"smiles": "c1ccc(C(C2=Nc3cccc4cccc(c34)N2)c2ccccc2)cc1", "TGI": 50.5}
{"smiles": "CN(CC(=O)N1CC(CCl)c2ccc([N+](=O)[O-])cc21)CC(=O)N1CC(CCl)c2ccc([N+](=O)[O-])cc21", "note": "(stereo not drawn)", "TGI": "> 100"}
{"smiles": "COC(=O)NC(Nc1ccccn1)(C(F)(F)F)C(F)(F)F", "TGI": "> 100"}
